From patent US8038984B2, “Membrane-permeant peptide complexes for treatment of sepsis” (Washington University, priority 1998, dated 2011)
Numbered stars: 1 amine (or outer) side, 2 acyl side, 3 side chain; on linkers, the order of the positions; unused ones are H or OH. Square brackets hold non-standard residues; d marks the D form. εLys = N[C@@H](CCCCN[*:1])C(=O)[*:2]; dOrn = NCCC[C@@H](N)C(=O)O; βAla = NCCC(=O)O

Tests used:
caspase-3 = biological target: T1, caspase-3 (Homo sapiens, UniProt P42574); experiment: Cleavage of the caspase-3 cleavable linker in situ in C6-ceramide-treated Jurkat cells; assay type: cell-based; conditions: 5 μM C6-ceramide, 1 μM peptide, RP-HPLC at 440 nm of lysates
T1 construct: Human Jurkat leukemia cells express pro-caspase-3; endogenous in cells; host or cells: Jurkat (human T-cell leukemia)
T1 sequence (P42574 29-175 limits assumed): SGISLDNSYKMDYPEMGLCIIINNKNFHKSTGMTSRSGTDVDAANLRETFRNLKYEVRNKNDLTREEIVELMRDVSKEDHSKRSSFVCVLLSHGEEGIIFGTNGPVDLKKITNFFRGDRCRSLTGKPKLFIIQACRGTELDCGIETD
T1 sequence (P42574 176-277 limits assumed): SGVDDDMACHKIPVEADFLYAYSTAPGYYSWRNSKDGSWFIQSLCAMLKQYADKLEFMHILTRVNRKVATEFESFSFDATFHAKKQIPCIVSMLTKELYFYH
Description: Human Jurkat leukemia cells express pro-caspase-3. Apoptosis can be induced by pre-incubation of Jurkat cells for 5 hr in medium containing C6-ceramide, a permeant phospholipid known to activate the cell death program (Herr, et al., EMBO J 16:6200-6208, 1997; Jayadev S, et al., J. Biol Chem 270:2047-2052, 1995). After pre-incubation of Jurkat cells in MEBSS buffer at […] in the absence (untreated) or presence of 5 μM C6-ceramide, 1 μM of the caspase-3 cleavable fluorescein tagged Tat peptide of Example 8 was added to the MEBSS buffer for 30 minutes. Untreated and apoptotic cells were then spun through oil (see Example 6) to clear extracellular spaces of Tat peptide, and the intact cells in the pellet were allowed to incubate for 5 minutes at 37° C. The oil was quickly suctioned off, the reaction terminated with cell lysis buffer (1% SDS, 10 mM sodium borate), and the cell extract centrifuged (500×g for 10 min) to pellet debris and precipitates. The supernatant was removed, lyophilized overnight, and resuspended in 500 μl of water. […] In C6-ceramide-treated cells, however, no such species was observable (FIG. 7).
The above experiment was repeated using the Tc-99m-Tat peptide of Example 8. […] Tc99-m and protein content were determined using published methods (Bosch et al., Leukemia 11:1131-37, 1997).

[1] = biological target: T2, recombinant human active caspase-3 (Homo sapiens, UniProt P42574); experiment: Cleavage of the caspase-3 cleavable linker in vitro; assay type: biochemical; conditions: 6 hrs incubation with active caspase-3, TLC
T2 construct: recombinant human active caspase-3
T2 sequence (P42574 29-175 limits assumed): T1 sequence (P42574 29-175 limits assumed)
T2 sequence (P42574 176-277 limits assumed): T1 sequence (P42574 176-277 limits assumed)
Description: In small reaction vials, Tat peptide chelate as the fluorescein tagged conjugate of Example 8 was incubated with and without recombinant human active caspase-3 in commercially available reaction buffer (caspase buffer, Invitrogen). In vial 1 was peptide conjugate in buffer without caspase-3; in vial 2 was peptide conjugate with active caspase-3; and in vial 3 was stock peptide conjugate. After 6 hrs of incubation to assure completion of the reaction, the reaction mixtures were spotted at the origin of silica gel TLC plates, developed in 15% TFA, and analyzed under an UV lamp. […] This represents direct evidence for successful synthesis of a caspase-3-cleavable Tat peptide imaging conjugate.

human lymphocytes = experiment: E. coli bacterial-induced lymphocyte apoptosis, staining for active caspase 3; assay type: cell-based
Description: Thymocytes and splenocytes were obtained from CLP and sham-treated mice ˜20 hours postoperatively. The APO-BRDU™ kit (Phoenix Flow Systems, San Diego, Calif.) was employed for flow cytometric quantitation of TUNEL. Antibodies to active caspase 3 (Cell Signaling—Catalog #9664) were used in the flow cytometry and/or TUNEL assay.
Lymphocytes were harvested from peripheral blood obtained from 6 healthy volunteers using a ficol gradient separation technique. Approximately 1×10^6 lymphocytes were plated in individual transwell containers. E. coli bacteria (strain ATCC 25922), that had been grown overnight in trypticase soy broth were added to a separate compartment of the transwell chamber separated from direct contact with the lymphocytes by a 0.02 micron filter (25 μl of bacteria at 3×10^9 CFUs added to 1 ml volume.

[2] = tested on: human Jurkat leukemia cells; experiment: Washout of Tc-99m-Tat-peptide complexes from preloaded Jurkat cells; assay type: cell-based; conditions: residual activity remaining within the cell 30 minutes after a wash in isotope-free buffer
Description: (§1) Characterization of accumulation of Tc-99m-peptide complex was also performed for nonadherent cell lines such as human Jurkat leukemia cells with minor modifications of methods described in the literature (Bosch et al., Leukemia, 11: 1131-1137, 1997). Transport experiments were performed in siliconized microfuge tubes and initiated by addition of 732.5 μl of cells at 2-3×10^6 cells/ml to 10 μl of buffer containing Tc-99m-peptide complex and 7.5 μl of vehicle alone or of any added drug in vehicle at 100-fold the desired concentration. The tubes were incubated in a 37° C. water bath with occasional mixing. The reaction was terminated by centrifuging 250 μl aliquots from the reaction for 10 seconds through 800 μl of a 75:25 mixture of silicon oil, density=1.050 (Aldrich) and mineral oil, density=0.875 (Acros). An aliquot of the aqueous phase was obtained to normalize extracellular concentration of the complex to cell-associated activity, then the oil and aqueous phases were aspirated and the cell pellet extracted in 0.5 ml of 1% SDS, 10 mM sodium borate. For tracer washout experiments, cells were first incubated to plateau uptake (10 min) in loading buffer (37° C.), collected by rapid centrifugation and the pellet resuspended in 50 ml MEBSS (4° C.) to clear extracellular tracer. Following another rapid spin, the cell pellet was resuspended in isotope-free MEBSS (37° C.) and the experiment terminated as above after various times in warm washout buffer. Radioactivity of the cell pellet, buffers and stocks were determined on a gamma counter (Cobra II, 130-165 keV window) and cell protein was determined by the BCA assay (Pierce). Transport data are reported as fmol Tc-complex (mg protein)^−1 (nM0)^− as previously described, with (nM0)^−1 representing total concentration of peptide conjugate in the extracellular buffer (Piwnica-Worms et al., Circulation, 82: 1826-1838, 1990).
(§2) Kinetic experiments of [^99mTc]D-Tat-peptide complexes were performed in Jurkat leukemia cells suspended in MEBSS with minor modification of the methods described in Example 6. Transport experiments were performed in siliconized microfuge tubes and initiated by addition of 732.5 μl of cells at 2-3×10^6 cells/ml to 10 μl of MEBSS containing [^99mTc]D-Tat-peptide complex and 7.5 μl of vehicle alone or of any added drug in vehicle at 100 fold the desired concentration. Unless stated otherwise, [^99mTc]D-Tat-peptide complex was added to MEBSS accompanied by a molar excess of unlabeled D-Tat-peptide as obtained directly from the labeling procedure. The final total peptide concentration was 7 nM to 8 μM (1-2 μCi/ml). The tube were incubated at 37° C. and the reaction terminated as previously described. For peptide washout experiments, cells were first incubated to plateau uptake (20 minutes) in MEBSS loading buffer at 37° C., collected by rapid centrifugation and the pellet resuspended in 50 ml of isotope-free MEBSS at 4° C. to clear extracellular tracer. Following another rapid spin, the cell pellet was resuspended in isotope-free MEBSS at 37° C. for various times and the reaction terminated as described previously. Protein assays and determination of gamma activity were as described in Example 6. Absolute concentration of total [Tc]Tat-peptide complex in solution was determined from the specific activity of Tc, based on equations of Mo/Tc generator equilibrium (Lamson et al., J. Nucl. Med., 16:639-641, 1975). Transport data are reported as pmol of peptidei (mg protein)^−1 (μM0)^−1, wherein peptidei represents total peptide conjugate within the cells and (nM0)^−1 represents concentration of total peptide conjugate in the extracellular buffer.

[3] = tested on: human KB-3-1 and KB-8-5 epidermoid carcinoma cells; experiment: Fluorescence (confocal) microscopy of subcellular distribution; assay type: cell-based; conditions: 0.5 μM extracellular concentration, KB-3-1 and KB-8-5 cells
Description: Subsequently, cells on covers lips were fixed in 4% (v/v) formaldehyde in PBS at room temperature and then rinsed 3 times with PBS (1 min each). Cells were then stained and mounted with anti-fading mounting medium containing propidium iodide (1 μg/ml) following the recommended procedures of the manufacturer (Vectashield). The distribution of the fluorescence was analyzed on a Zeiss confocal laser fluorescence microscope equipped with a mercury lamp, oil immersion objectives and a CCD interfaced to a PC. Propidium iodide distribution was interrogated using 340-380 nm excitation and 430 nm emission, while fluorescein distribution was interrogated using 450-490 nm excitation and 520 nm emission.
To localize the subcellular distribution of the Tat-peptide conjugate, uptake experiments were performed with the fluorescein derivatized conjugate using human KB-3-1 and KB-8-5 epidermoid carcinoma cells.

[4] = tested on: human Jurkat leukemia cells; experiment: Cell accumulation (uptake) of Tc-99m-Tat-peptide complexes in Jurkat cells; assay type: cell-based; conditions: Jurkat cells
Description: Control solution for cell uptake experiments was a modified Earle's balanced salt solution (MEBSS) containing (mM): 145 Na^+, 5.4 K^+, 1.2 Ca^2+, 0.8 Mg^2+, 152 Cl^−, 0.8 H2PO4^−, 0.8 SO4^2−, 5.6 dextrose, 4.0 HEPES, and 1% bovine calf serum (vol/vol), pH 7.4±0.05. A 130 mM K^+/20 mM Cl^− solution was made by equimolar substitution of potassium methanesulfonate for NaCl as described by Piwnica-Worms et al. (J. Gen. Physiol., 81:731-748, 1983).
as §1
as §2, with “Transport data are reported as pmol of peptidei (mg protein)^−1 (μM0)^−1, wherein peptidei represents total peptide conjugate within the cells and (nM0)^−1 represents concentration of total peptide conjugate in the extracellular buffer.” left out

## fluorescein tagged conjugate of Example 8: caspase-3 cleavable Tat peptide conjugate labeled at the C-terminal thiol of the peptide chelator with fluorescein maleimide (Ac-GRKKRRQRRRGDEVDG[εLys]GC(fluorescein maleimide)-NH2; not fully specified; printed as acetyl-GRKKRRQRRR-GDEVDG-εKGC-amide; also: conjugate)
caspase-3; listed as caspase-3 cleavable fluorescein tagged Tat peptide of Example 8
  cleavage in living cells upon activation of caspase-3: rapid cleavage
caspase-3; listed as fluorescein tagged Tat peptide
  cleavage in living cells upon activation of caspase-3: absence of the intact Tat peptide
[1]
  cleavage by caspase-3: cleavage of the Tat peptide conjugate at the D-G cleavage site

## Bcl-xL: free unconjugated Bcl-xL, anti-apoptotic Bcl-2 family protein
Human lymphocytes; human lymphocytes treated with live E. coli for ~5 hours
  CD3 T cell apoptosis by staining for active caspase 3: a similar decrease was not seen

## acetyl-GRKKRRORRR-AHA-εKGC-amide-fluorescein-maleimide trifluoroacetate [Example 3]
[2]
  30 min Washout: 24.32 pmol (mg protein)^−1 (μM0)^−1
[3]
  subcellular distribution: rapid cytoplasmic and nuclear accumulation
[4]; [99mTc] complexes, 37° C., 20 min
  20 min Uptake: 42.74 pmol (mg protein)^−1 (μM0)^−1
[4]; uptake/washout ratio
  U/W Ratio: 1.8

## (d)-Ac-RKKRR-Orn-RRR-β-A-(l)-SNRELVVDFLSDKLSQKGDS-COOH (Ac-[dR][dK][dK][dR][dR][dOrn][dR][dR][dR][βAla]SNRELVVDFLSDKLSQKGDS-OH; SMILES CC(=O)N[C@H](CCCNC(=N)N)C(=O)N[C@H](CCCCN)C(=O)N[C@H](CCCCN)C(=O)N[C@H](CCCNC(=N)N)C(=O)N[C@H](CCCNC(=N)N)C(=O)N[C@H](CCCN)C(=O)N[C@H](CCCNC(=N)N)C(=O)N[C@H](CCCNC(=N)N)C(=O)N[C@H](CCCNC(=N)N)C(=O)NCCC(=O)N[C@@H](CO)C(=O)N[C@@H](CC(N)=O)C(=O)N[C@@H](CCCNC(=N)N)C(=O)N[C@@H](CCC(=O)O)C(=O)N[C@@H](CC(C)C)C(=O)N[C@H](C(=O)N[C@H](C(=O)N[C@@H](CC(=O)O)C(=O)N[C@@H](Cc1ccccc1)C(=O)N[C@@H](CC(C)C)C(=O)N[C@@H](CO)C(=O)N[C@@H](CC(=O)O)C(=O)N[C@@H](CCCCN)C(=O)N[C@@H](CC(C)C)C(=O)N[C@@H](CO)C(=O)N[C@@H](CCC(N)=O)C(=O)N[C@@H](CCCCN)C(=O)NCC(=O)N[C@@H](CC(=O)O)C(=O)N[C@@H](CO)C(=O)O)C(C)C)C(C)C) [TAT-BH4(D)2, reference compound]
Human lymphocytes; 1 μM, human lymphocytes, live E. coli ~5 hours
  bacterial-induced apoptosis: did not prevent apoptosis
